Experimental findings from publication PMC12040169 (PLOS Biology, 2025) are described below.

One data set is described as follows: in vitro. The following applies: human, hela cells, % viability.
As for `CN1CCN(NC(=O)COc2ccc(Br)cc2Cl)CC1` [CBK268174], the viability (usually a read-out of living cells in per cent, often relative to untreated cells) at 28.5 h, 10 µM amounted to 92.6%.

For the compound `CC1CCc2n[nH]c(C(=O)N3CCC(O)C(C)C3)c2C1` (centres unmarked) [CBK283207], the viability at 28.5 h, 10 µM amounted to 107%. As to `COc1ccc(CN(CCCN2CCOCC2)C(=O)NCc2ccc(C#N)cc2)cc1OC` [CBK159125], the viability at 28.5 h, 10 µM was found to be 89%.

As to `O=C(CSc1ccccn1)Nc1cccc(Cl)c1Cl` [CBK057679], the viability at 28.5 h, 10 µM is 91.8%. For `O=C(N[C@@H](Cc1ccccc1)C(=O)O)c1cccc2c1-c1ccccc1C2=O` [CBK286710], the viability at 28.5 h, 10 µM worked out at 92.1%.

For `CC(C)(CN)CN(Cc1c[nH]c(-c2ccccc2)n1)C(=O)Nc1ccc(C(C)(C)C)cc1` [CBK002462C], the viability at 28.5 h, 10 µM is 87.5%. Same read-out and setting: with `COc1ccccc1-n1nc(CC(C)C)nc1C(C)NS(C)(=O)=O` (centres unmarked) [CBK306660] the figure was 95.6%.

For the compound `O=C(O)c1cccc(NS(=O)(=O)c2cccc(S(=O)(=O)c3ccc(Cl)c(Cl)c3)c2)c1` [CBK261259], the viability at 28.5 h, 10 µM turned out to be 102%.

For the compound `Cc1ccc(CSCCNS(=O)(=O)c2ccsc2C(=O)O)cc1` [CBK296727], the viability at 28.5 h, 10 µM is 92.6%. As to `COc1cccc(CNC(=O)Cn2nnc(-c3ccc(CN4CCC(C)CC4)cc3)n2)c1OC` [CBK144161C], the viability at 28.5 h, 10 µM worked out at 94.1%. Regarding `COc1ccc(Nc2nc(-c3cccnc3)cs2)c(OC)c1` [CBK126814], the viability at 28.5 h, 10 µM was determined as 92.6%. With `c1cncc(COc2cncc(OC3CCN(Cc4ccc5c(c4)OCO5)C3)n2)c1` (centres unmarked) [CBK084458], the viability at 28.5 h, 10 µM was determined as 88.9%. As for `Nc1ncnc2c1nc1n2[C@H]2C[C@@H](O)[C@H](O2)C1=O` [CBK201259], the viability at 28.5 h, 10 µM turned out to be 98.2%. On to `CCCNC(=O)CN1C(=O)N2CCCN=C2c2ccc(Cl)cc21` [CBK284389], for which the viability at 28.5 h, 10 µM is 82.8%. Same read-out and setting: to `CC(=O)c1cccc(NC(=O)Cn2nc(C)ccc2=O)c1` [CBK304653] belongs 101%.

Turning to `NC(=O)COc1ccc(CNC(=O)CN2CCCCCC2)cc1` [CBK306332], the viability at 28.5 h, 10 µM was determined as 87.6%. As to `CC1CCN(C(=O)COC(=O)c2cnc(-c3ccncc3)s2)CC1` [CBK306255], the viability at 28.5 h, 10 µM stood at 94.6%. In the case of `Cc1ccccc1C(=O)Nc1cccc(NC(=O)c2nc[nH]n2)c1` [CBK267108], the viability at 28.5 h, 10 µM was 86.6%. Regarding `CC(C)NC(=O)CN1CCC(N(C)Cc2cccc(C(F)(F)F)c2)CC1` [CBK305429], the viability at 28.5 h, 10 µM was determined as 95%. Same read-out and setting: to `CN1CCC(N(C2CC2)S(=O)(=O)c2ccc(NC(=O)C(C)(C)C)cc2)CC1` [CBK021115] belongs 99%; to `O=C(O)c1ccc(N2C(=O)C(=Cc3c4ccccc4cc4ccccc34)SC2=S)cc1` [CBK296101], 85.9%. Turning to `O=C(CN1C(=O)c2ccccc2S1(=O)=O)Nc1ccccc1C(=O)N1CCOCC1` [CBK266975], the viability at 28.5 h, 10 µM came out at 93.3%. On the same count and under the same terms, to `Cn1ncc2c1CCCN(C(=O)c1cccc(C(F)(F)F)c1)C2` [CBK282252] belongs 87.3%; to `CC(=O)N1CCC(N2C[C@H](O)C[C@H]2c2nc(-c3cccc([N+](=O)[O-])c3)no2)CC1` [CBK288846], 90.5%; to `OCc1ccc(-c2nccnc2NCc2ccccn2)cc1` [CBK037088], 106%. Regarding `Cc1ccc(/C=C2\SC(=S)N(CC(=O)Nc3cccc(C(=O)O)c3)C2=O)cc1` [CBK263935], the viability at 28.5 h, 10 µM was 86.2%. Consider `CNC(=O)CSc1nccnc1N1CCCC1` [CBK107748], for which the viability at 28.5 h, 10 µM was found to be 93.6%. As for `CC(=O)Nc1cc(NC(C)=O)c(C)c(C(=O)O)c1` [CBK286623], the viability at 28.5 h, 10 µM came out at 88.6%. In the case of `CCn1c(SCC(=O)N2CCC(C(N)=O)(N3CCCCC3)CC2)nnc1-c1ccccc1` [CBK266135], the viability at 28.5 h, 10 µM was determined as 95.2%.

For `C(=C\c1ccccc1)/CNCCCN1CCOCC1` [CBK278195C], the viability at 28.5 h, 10 µM worked out at 105%.

For `OC(COCc1ccccc1)CN1CCN(c2ccccc2F)CC1` (centres unmarked) [CBK074851C], the viability at 28.5 h, 10 µM was found to be 92.6%. As for `O=C1C2C3C=CC(C2C(=O)N1CCO)C1C2C(=O)N(CCO)C(=O)C2C31` (centres unmarked) [CBK263016], the viability at 28.5 h, 10 µM amounted to 101%. `CCn1c(=N)n(CC(=O)O)c2ccccc21` [CBK262906B]: the viability at 28.5 h, 10 µM was found to be 94%. `O=C(c1ccc(-c2nccnc2NCc2ccco2)cc1)N1CCOCC1` [CBK036920]: the viability at 28.5 h, 10 µM was determined as 98.6%. As to `CSC(C)C(=O)N(C)C1CCN(c2ncnc3ccccc23)CC1` (centres unmarked) [CBK305300], the viability at 28.5 h, 10 µM amounted to 83.4%.

Take `O=C(O)CNC(=O)CCS(=O)(=O)c1ccc(F)cc1` [CBK286580]: the viability at 28.5 h, 10 µM stood at 86.1%. For `Cc1nc(=O)c(-c2ccccc2)c(C)n1-c1ccc(OCC(=O)O)cc1` [CBK286615], the viability at 28.5 h, 10 µM is 106%. As for `CC(=O)NCCSc1nc2ccccc2nc1NC(C)C` [CBK105618], the viability at 28.5 h, 10 µM turned out to be 102%.

Take `O=c1[nH]c(NCc2ccccc2)nc2c1CCCC2` [CBK307423]: the viability at 28.5 h, 10 µM amounted to 89.9%. On to `Cn1cc(CCNC(=O)NC2CCN(Cc3ccccn3)CC2)cn1` [CBK305297], for which the viability at 28.5 h, 10 µM is 102%. On to `Cc1ccccc1OCC(=O)NCc1ccc(C(=O)O)cc1` [CBK287155], for which the viability at 28.5 h, 10 µM turned out to be 104%. Consider `NC(=O)C1CCN(c2ccc(-c3noc([C@@H]4CCCN4Cc4cccnc4)n3)cn2)CC1` [CBK288882], for which the viability at 28.5 h, 10 µM was 108%. Take `CC(C)COc1ccc(-c2nonc2NC(=O)c2ccccc2F)cc1` [CBK299831]: the viability at 28.5 h, 10 µM turned out to be 86%.

In the case of `COc1ccc(NC(=O)CSc2nnc(N)s2)cc1` [CBK058635], the viability at 28.5 h, 10 µM stood at 104%. The same measure, in the same setting: to `O=C(NC1CCCCC1)[C@H]1CN2CCC1C[C@@H]2Cn1cc(CO)nn1` (some centres unmarked) [CBK289086] belongs 102%; to `COc1ccc(NC(=O)CCn2ccc3ccncc32)c(C)c1` [CBK282860], 109%.

Regarding `CC1CC(C)CN(C(=O)NCCCCCC(=O)O)C1` (centres unmarked) [CBK286793], the viability at 28.5 h, 10 µM came to 89%.

As to `CC(CSSCC(C)C(=O)O)C(=O)O` (centres unmarked) [CBK260940], the viability at 28.5 h, 10 µM is 96.7%.

As for `CCC1c2ccsc2CCN1CC(O)COCc1ccco1` (centres unmarked) [CBK303992], the viability at 28.5 h, 10 µM is 97.3%.

On to `CCOc1ccccc1NC(=O)NC1CC2CCC(C1)N2Cc1ccccc1` (centres unmarked) [CBK116294], for which the viability at 28.5 h, 10 µM worked out at 86.2%.

As for `Clc1ccc(CN2CCN(c3nccnc3OCCN3CCOCC3)CC2)cc1` [CBK082887T], the viability at 28.5 h, 10 µM was 97.4%. As for `O=C(Nc1cccnc1)N1CCN(c2ccccc2)CC1` [CBK145043], the viability at 28.5 h, 10 µM is 89.5%. For `O=C(Nc1nc2c(s1)CCCCC2)C1CN(S(=O)(=O)c2ccc(F)cc2)C1` [CBK286005], the viability at 28.5 h, 10 µM is 95%. On to `NS(=O)(=O)c1ccc(CNC(=O)C2(c3ccccc3)CCCC2)cc1` [CBK161523], for which the viability at 28.5 h, 10 µM amounted to 101%. In the case of `O=C(O)c1ccc(C(=O)O)c2c(C(=O)O)cccc12` [CBK261356], the viability at 28.5 h, 10 µM came out at 82.3%. On to `O=C([C@H]1O[C@H](CCN2CCN(c3ccccc3)CC2)CC[C@@H]1O)N1CCOCC1` [CBK288724], for which the viability at 28.5 h, 10 µM turned out to be 98.5%. As to `CN1C(=O)c2ccccc2C(=O)[C@@]2(C)CN(C(=O)C3CCCC3)C[C@@H]12` [CBK284570], the viability at 28.5 h, 10 µM is 91.5%.

Regarding `COc1cccc(C(NC(=O)Cc2ccc(-n3nnnc3C)cc2)c2ccccc2)c1` (centres unmarked) [CBK285605], the viability at 28.5 h, 10 µM was 93.4%. Turning to `Cn1nc(CC(=O)Nc2ccc(OC(=O)c3ccccc3)cc2)c2ccccc2c1=O` [CBK264057], the viability at 28.5 h, 10 µM was found to be 96%.

Turning to `C=CCNC(=O)C1C2CCC3(CC(=O)c4cc(Cl)ccc4O3)C21` (centres unmarked) [CBK284873], the viability at 28.5 h, 10 µM came to 86.3%.

Turning to `CC(C)Nc1nccnc1Sc1cccc(C(=O)O)c1` [CBK093581], the viability at 28.5 h, 10 µM is 96.6%.

For `CCNC(=O)N[C@H]1[C@H](O)[C@@H](N(CC)CC)[C@@H]2OC[C@H]1O2` [CBK288816], the viability at 28.5 h, 10 µM amounted to 113%. Take `COCCCNC(=O)C1CCN(c2nc3c(-c4cccc(C)c4)csc3c(=O)[nH]2)CC1` [CBK215630]: the viability at 28.5 h, 10 µM worked out at 96.6%. Take `COc1ccc(-c2csc(NC(=O)c3ccccc3-c3ccccc3C(=O)O)n2)cc1` [CBK296076]: the viability at 28.5 h, 10 µM is 88.6%.

Regarding `C=C[C@H]1C[N@@]2CC[C@H]1C[C@@H]2CNS(=O)(=O)c1cccc2cccnc12` [CBK288751], the viability at 28.5 h, 10 µM was 98.2%. Consider `Cc1oc(NC(=O)CN2CCN(c3ncccn3)CC2)c(C#N)c1C` [CBK305569], for which the viability at 28.5 h, 10 µM is 94.6%. Still for that read-out and setting: with `O=C(CC1OCCc2ccsc21)N1CCCC(n2cccn2)C1` (centres unmarked) [CBK305154] the figure was 96.7%. The same measure, in the same setting: to `CC(C)(CC(=O)O)CC(=O)Nc1ccc(-c2nc3ccccc3s2)cc1` [CBK299796] belongs 104%. As for `O=C(O)CC1OC(=O)c2cc3c(cc21)C(=O)OC3CC(=O)O` (centres unmarked) [CBK262928], the viability at 28.5 h, 10 µM was determined as 100%. For `CC(C)(CN)CN(Cc1cccc2ccccc12)C(=O)NC1C[C@H]1c1ccccc1` (some centres unmarked) [CBK000490C], the viability at 28.5 h, 10 µM was found to be 94.7%. Take `O=C(NCCCC1CCOC1)c1[nH]nc2c1CCCCC2` (centres unmarked) [CBK283154]: the viability at 28.5 h, 10 µM worked out at 88.7%. `COc1cc(CNCCO)ccc1OCc1cccc(Cl)c1` [CBK270013C]: the viability at 28.5 h, 10 µM was 94.5%. Regarding `O=C(C1=Cc2ccccc2OC1)N1CCC(c2ccncc2)CC1` [CBK282339], the viability at 28.5 h, 10 µM was 104%. As for `CSCCC(=O)N1CCN(c2ncccn2)CC1` [CBK144509], the viability at 28.5 h, 10 µM was 90.3%. Consider `CC(=O)N1CCN(c2ncnc3c2nnn3-c2ccccc2)CC1` [CBK287753], for which the viability at 28.5 h, 10 µM was determined as 92.9%.

In the case of `Cc1ccc(CN(CCCn2ccnc2)Cc2ccccc2O)s1` [CBK283135], the viability at 28.5 h, 10 µM is 103%. Same read-out and setting: with `O=C1CN(Cc2cnn(-c3ccc(F)cc3)c2)CCN1C1CCCC1` [CBK281926] the figure was 86.5%; with `Fc1ccccc1-c1nc2cnccn2c1NCc1cccs1` [CBK282332], 90.3%. `Fc1ccc(-c2cncc(NCc3ccncc3)n2)cc1Cl` [CBK065343]: the viability at 28.5 h, 10 µM came out at 94.7%.

Staying with this data set, now noted: human, hela cells, % viability, bulk resorufin, single well.
Consider `CSc1cc(C)c2c(c1)COC1(CCN(C(=O)COCC(=O)O)CC1)O2` [CBK060839], for which the viability at 28.5 h, 10 µM stood at 94.1%.
